Assay results from US10669261B2, “Heteroarylhydroxypyrimidinones as agonists of the APJ receptor” (BRISTOL-MYERS SQUIBB COMPANY, priority 2015, dated 2020).

Each compound was assayed against T1, human APJ receptor (Homo sapiens, UniProt P35414) (assay: Intracellular cAMP accumulation assay (APJ hcAMP, HTRF)). Conditions: HEK293 cells stably expressing human APJ receptor; inhibition of forskolin-mediated cAMP production; stated at end of example; read-out: Human APJ cAMP Potency Range.
T1 construct: expressed in transfected cells
T1 sequence (P35414 1-380): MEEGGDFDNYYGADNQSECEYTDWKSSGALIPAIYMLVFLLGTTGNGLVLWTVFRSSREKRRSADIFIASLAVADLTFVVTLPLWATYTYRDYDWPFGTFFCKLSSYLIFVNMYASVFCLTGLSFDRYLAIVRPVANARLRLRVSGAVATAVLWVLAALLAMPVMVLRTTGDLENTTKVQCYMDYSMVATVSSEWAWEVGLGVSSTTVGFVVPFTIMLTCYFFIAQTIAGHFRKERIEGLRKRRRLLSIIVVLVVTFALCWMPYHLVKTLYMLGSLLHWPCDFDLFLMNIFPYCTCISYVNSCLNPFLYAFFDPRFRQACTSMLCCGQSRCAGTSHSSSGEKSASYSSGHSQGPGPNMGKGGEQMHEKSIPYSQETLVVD
Assay type: cell-based
Description: Intracellular cAMP Accumulation Assay
HEK293 cells stably expressing human APJ receptor were used to assess the activity of compounds. Cultured cells were detached and resuspended in the cAMP Homogeneous Time-Resolved Fluorescence (HTRF) assay buffer (Cisbio cat; #62AM4PEJ). The assay was performed in 384-well assay plates (Perkin-Elmer; cat #6008289) according to assay protocol provided by the manufacturer. Serial dilutions of a compound together with assay buffer containing […] IBMX and 2 μM forskolin were added to each well containing 5,000 cells and incubated for 30 minutes at room temperature. Subsequently, cAMP D2 reagent was added in the lysis buffer followed by the EuK antibody (Cisbio; cat #62AM4PEJ) and incubated for 60 min. The fluorescence emission ratio was measured using fluorometer. The intracellular cAMP concentrations (compound-stimulated inhibition of forskolin-mediated cAMP production) were calculated by extrapolation from a standard curve using known cAMP concentrations. The EC50 values were obtained by fitting the data to a sigmoidal concentration-response curve with variable slope. The maximal achievable inhibition of forskolin-induced cAMP levels (Ymax) for each compound was expressed as relative percentage of inhibition attained using pyroglutamated apelin-13 ((Pyr1)apelin-13) peptide, which was set to 100%.
The examples disclosed below were tested in the APJ in vitro assays described above and were found having human APJ cyclic AMP (hcAMP) activity. The EC50 value of each compound is presented at the end of the example description.
The biological activity of the exemplified compounds of this invention determined by the assay described above is shown at the end of each example.

EC50, 0.01 to 10 nM:
CCN(CC)C(=O)Cc1nnc(-c2c(O)n(-c3c(OC)cccc3OC)c(CCC3CC3)nc2=O)o1 [Example 52, 2-(5-(2-(2-Cyclopropylethyl)-1-(2,6-dimethoxyphenyl)-6-hydroxy-4-oxo-1,4-dihydropyrimidin-5-yl)-1,3,4-oxadiazol-2-yl)-N,N-diethylacetamide]
COc1cccc(OC)c1-n1c(CCC2CC2)nc(=O)c(-c2nnc(CN(C)C(=O)c3ccccn3)o2)c1O [Example 53, N-((5-(2-(2-cyclopropylethyl)-1-(2,6-dimethoxyphenyl)-6-hydroxy-4-oxo-1,4-dihydropyrimidin-5-yl)-1,3,4-oxadiazol-2-yl)methyl)-N-methylpicolinamide]

Same assay, conditions: Table 1; HEK293 cells stably expressing human APJ receptor; read-out: hAPJ cAMP EC50 Potency range

EC50, 0.01 to 10 nM:
[2H]C([2H])([2H])Oc1cccc(OC([2H])([2H])[2H])c1-n1c(CCCC)nc(=O)c(-c2nnc(Cc3ccc(Cl)cc3)o2)c1O [Example 49, 1-[2,6-bis(^2H3)methoxyphenyl]-2-butyl-5-{5-[(4-chlorophenyl)methyl]-1,3,4-oxadiazol-2-yl}-6-hydroxy-1,4-dihydropyrimidin-4-one]
[2H]C([2H])([2H])Oc1cccc(OC([2H])([2H])[2H])c1-n1c(COCC)nc(=O)c(-c2nnc(Cc3noc4ccccc34)o2)c1O [Example 50, 5-[5-(1,2-benzoxazol-3-ylmethyl)-1,3,4-oxadiazol-2-yl]-1-[2,6-bis(^2H3)methoxyphenyl]-2-(ethoxymethyl)-6-hydroxy-1,4-dihydropyrimidin-4-one]
[2H]C([2H])([2H])Oc1cccc(OC([2H])([2H])[2H])c1-n1c(COCC)nc(=O)c(-c2nnc(Cc3ccc(Cl)cc3)o2)c1O [Example 51, 1-[2,6-bis(^2H3)methoxyphenyl]-5-{5-[(4-chlorophenyl)methyl]-1,3,4-oxadiazol-2-yl}-2-(ethoxymethyl)-6-hydroxy-1,4-dihydropyrimidin-4-one]
COc1cccc(OC)c1-n1c(CCC2CC2)nc(=O)c(-c2nnc(CN(C)C(=O)c3ccccn3)o2)c1O [Example 54, N-({5-[2-(2-cyclopropylethyl)-1-(2,6-dimethoxyphenyl)-6-hydroxy-4-oxo-1,4-dihydropyrimidin-5-yl]-1,3,4-oxadiazol-2-yl}methyl)-N-methylpyridine-2-carboxamide]
COc1cccc(OC)c1-n1c(CCC2CC2)nc(=O)c(-c2nnc(CNC(=O)c3cccc(Cl)c3)o2)c1O [Example 55, 3-chloro-N-({5-[2-(2-cyclopropylethyl)-1-(2,6-dimethoxyphenyl)-6-hydroxy-4-oxo-1,4-dihydropyrimidin-5-yl]-1,3,4-oxadiazol-2-yl}methyl)benzamide]
COc1cccc(OC)c1-n1c(CCC2CC2)nc(=O)c(-c2nnc(CNC(=O)c3cccnc3)o2)c1O [Example 56, N-({5-[2-(2-cyclopropylethyl)-1-(2,6-dimethoxyphenyl)-6-hydroxy-4-oxo-1,4-dihydropyrimidin-5-yl]-1,3,4-oxadiazol-2-yl}methyl)pyridine-3-carboxamide]
COc1cccc(OC)c1-n1c(CCC2CC2)nc(=O)c(-c2nnc(CNC(=O)c3ccccc3)o2)c1O [Example 57, N-({5-[2-(2-cyclopropylethyl)-1-(2,6-dimethoxyphenyl)-6-hydroxy-4-oxo-1,4-dihydropyrimidin-5-yl]-1,3,4-oxadiazol-2-yl}methyl)benzamide]
COc1cccc(OC)c1-n1c(CCC2CC2)nc(=O)c(-c2nnc(CNC(=O)c3ccccn3)o2)c1O [Example 58, N-({5-[2-(2-cyclopropylethyl)-1-(2,6-dimethoxyphenyl)-6-hydroxy-4-oxo-1,4-dihydropyrimidin-5-yl]-1,3,4-oxadiazol-2-yl}methyl)pyridine-2-carboxamide]
COc1cccc(OC)c1-n1c(CCC2CC2)nc(=O)c(-c2nnc(Cc3ccc(Cl)cn3)o2)c1O [Example 59, 5-{5-[(5-chloropyridin-2-yl)methyl]-1,3,4-oxadiazol-2-yl}-2-(2-cyclopropylethyl)-1-(2,6-dimethoxyphenyl)-6-hydroxy-1,4-dihydropyrimidin-4-one]
COc1cccc(OC)c1-n1c(COC(C)C)nc(=O)c(-c2nnc(Cc3ccc(Cl)cc3F)o2)c1O [Example 60, 5-{5-[(4-chloro-2-fluorophenyl)methyl]-1,3,4-oxadiazol-2-yl}-1-(2,6-dimethoxyphenyl)-6-hydroxy-2-[(propan-2-yloxy)methyl]-1,4-dihydropyrimidin-4-one]
COc1cccc(OC)c1-n1c(CCC2CC2)nc(=O)c(-c2nnc(Cc3ccc(F)cn3)o2)c1O [Example 61, 2-(2-cyclopropylethyl)-1-(2,6-dimethoxyphenyl)-5-{5-[(5-fluoropyridin-2-yl)methyl]-1,3,4-oxadiazol-2-yl}-6-hydroxy-1,4-dihydropyrimidin-4-one]
COc1cccc(OC)c1-n1c(C2CCCC2)nc(=O)c(-c2nnc(Cn3ccccc3=O)o2)c1O [Example 62, 2-cyclopentyl-1-(2,6-dimethoxyphenyl)-6-hydroxy-5-{5-[(2-oxo-1,2-dihydropyridin-1-yl)methyl]-1,3,4-oxadiazol-2-yl}-1,4-dihydropyrimidin-4-one]
COc1cccc(OC)c1-n1c(C2CCCC2)nc(=O)c(-c2nnc(Cc3ccc(Cl)nc3)o2)c1O [Example 63, 5-{5-[(6-chloropyridin-3-yl)methyl]-1,3,4-oxadiazol-2-yl}-2-cyclopentyl-1-(2,6-dimethoxyphenyl)-6-hydroxy-1,4-dihydropyrimidin-4-one]
COc1cccc(OC)c1-n1c(C2CCCC2)nc(=O)c(-c2nnc(CN3CCCC3=O)o2)c1O [Example 64, 2-cyclopentyl-1-(2,6-dimethoxyphenyl)-6-hydroxy-5-{5-[(2-oxopyrrolidin-1-yl)methyl]-1,3,4-oxadiazol-2-yl}-1,4-dihydropyrimidin-4-one]
COc1cccc(OC)c1-n1c(C2CCCC2)nc(=O)c(-c2nnc(Cc3csc(C)n3)o2)c1O [Example 65, 2-cyclopentyl-1-(2,6-dimethoxyphenyl)-6-hydroxy-5-{5-[(2-methyl-1,3-thiazol-4-yl)methyl]-1,3,4-oxadiazol-2-yl}-1,4-dihydropyrimidin-4-one]
COc1cccc(OC)c1-n1c(C2CCCC2)nc(=O)c(-c2nnc(Cc3ccc(Cl)cn3)o2)c1O [Example 66, 5-{5-[(5-chloropyridin-2-yl)methyl]-1,3,4-oxadiazol-2-yl}-2-cyclopentyl-1-(2,6-dimethoxyphenyl)-6-hydroxy-1,4-dihydropyrimidin-4-one]
COc1cccc(OC)c1-n1c(C2CCCC2)nc(=O)c(-c2nnc(Cc3ccc(F)cn3)o2)c1O [Example 67, 2-cyclopentyl-1-(2,6-dimethoxyphenyl)-5-{5-[(5-fluoropyridin-2-yl)methyl]-1,3,4-oxadiazol-2-yl}-6-hydroxy-1,4-dihydropyrimidin-4-one]
COc1cccc(OC)c1-n1c(C2CCCC2)nc(=O)c(-c2nnc(Cc3ccc(C)nc3)o2)c1O [Example 68, 2-cyclopentyl-1-(2,6-dimethoxyphenyl)-6-hydroxy-5-{5-[(6-methylpyridin-3-yl)methyl]-1,3,4-oxadiazol-2-yl}-1,4-dihydropyrimidin-4-one]
COc1cccc(OC)c1-n1c(C2CCCC2)nc(=O)c(-c2nnc(Cc3ncc(Cl)cc3F)o2)c1O [Example 69, 5-{5-[(5-chloro-3-fluoropyridin-2-yl)methyl]-1,3,4-oxadiazol-2-yl}-2 cyclopentyl-1-(2,6-dimethoxyphenyl)-6-hydroxy-1,4-dihydropyrimidin-4-one]
COc1cccc(OC)c1-n1c(C2CCC2)nc(=O)c(-c2nnc(Cc3ccc(Cl)cn3)o2)c1O [Example 70, 5-{5-[(5-chloropyridin-2-yl)methyl]-1,3,4-oxadiazol-2-yl}-2-cyclobutyl-1-(2,6-dimethoxyphenyl)-6-hydroxy-1,4-dihydropyrimidin-4-one]
COc1cccc(OC)c1-n1c(C2CCC2)nc(=O)c(-c2nnc(Cc3ncc(Cl)cc3F)o2)c1O [Example 71, 5-{5-[(5-chloro-3-fluoropyridin-2-yl)methyl]-1,3,4-oxadiazol-2-yl}-2-cyclobutyl-1-(2,6-dimethoxyphenyl)-6-hydroxy-1,4-dihydropyrimidin-4-one]
